According to the supplement of paper PMC11061612:

Tests used:
Experiment in all cases: Bliss excess, mean over the matrix (fraction); higher = more synergy
[1] = test system: LoVo (Colorectal Carcinoma)
In short: (§1)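 Cell lines grown in DMEM/F12 or RPMI with 10% FBS were plated in 1536-well plates and held 24 hours at 37°C, 5% CO2 before 72 hours of exposure to two-drug dose matrices, with DMSO typically at 0.2%. CellTiter-Glo 2.0 luminescence gave viability, which was converted to inhibition. Vehicle wells were set to 0 and blank wells to 1. Combination Emax is the second-highest inhibition in the matrix, and Bliss excess is the observed combination effect minus the expected EA + EB − EA·EB, where EA and EB are the single-agent effects.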

[2] = test system: LB771-HNC (Head and Neck Carcinoma)
In short: as §1

[3] = test system: CTB-1 (B-Cell Non-Hodgkin's Lymphoma)
In short: as §1

[4] = test system: LU-139 (Small Cell Lung Carcinoma)
In short: as §1

[5] = test system: OC-314 (Ovarian Carcinoma)
In short: as §1

[6] = test system: 639-V (Bladder Carcinoma)
In short: as §1

[7] = test system: EN (Endometrial Carcinoma)
In short: as §1

[8] = test system: RKO (Colorectal Carcinoma)
In short: as §1

[9] = test system: TE-4 (Esophageal Squamous Cell Carcinoma)
In short: as §1

SH-4 (Melanoma) = test system: SH-4 (Melanoma)
In short: as §1

[10] = test system: KYSE-410 (Esophageal Squamous Cell Carcinoma)
In short: as §1

[11] = test system: NCI-H747 (Colorectal Carcinoma)
In short: as §1

[12] = test system: SW626 (Colorectal Carcinoma)
In short: as §1

NB14 (Neuroblastoma) = test system: NB14 (Neuroblastoma)
In short: as §1

[13] = test system: MHH-PREB-1 (B-Cell Non-Hodgkin's Lymphoma)
In short: as §1

NCI-H28 (Mesothelioma) = test system: NCI-H28 (Mesothelioma)
In short: as §1

[14] = test system: SW1271 (Small Cell Lung Carcinoma)
In short: as §1

[15] = test system: UMC-11 (Other Solid Carcinomas)
In short: as §1

NCI-H2795 (Mesothelioma) = test system: NCI-H2795 (Mesothelioma)
In short: as §1

[16] = test system: HCC-15 (Squamous Cell Lung Carcinoma)
In short: as §1

SMILES	Bliss excess [1]	Bliss excess [2]	Bliss excess [3]	Bliss excess [4]	Bliss excess [5]	Bliss excess [6]	Bliss excess [7]	Bliss excess [8]	Bliss excess [9]	Bliss excess (SH-4 (Melanoma))	Bliss excess [10]	Bliss excess [11]	Bliss excess [12]	Bliss excess (NB14 (Neuroblastoma))	Bliss excess [13]	Bliss excess (NCI-H28 (Mesothelioma))	Bliss excess [14]	Bliss excess [15]	Bliss excess (NCI-H2795 (Mesothelioma))	Bliss excess [16]
CC1(C)CCC(CN2CCN(c3ccc(C(=O)NS(=O)(=O)c4ccc(NCC5CCOCC5)c([N+](=O)[O-])c4)c(Oc4cnc5[nH]ccc5c4)c3)CC2)=C(c2ccc(Cl)cc2)C1 [Venetoclax] + C[C@@H]1COCCN1C2=NC(=NC(=C2)C3(CC3)[S@](=N)(=O)C)C4=C5C=CNC5=NC=C4 [AZD6738] (first compound max 1 µM, 7x7, partner max 10 µM)	-0.0637	-0.014	-0.0184	-0.0111	-0.003	-0.0323	-0.0605	-0.0796	-0.0337	-0.022	-0.0473	-0.0621	-0.0492	-0.0005	0.0046	-0.059	-0.0497	-0.0331	-0.0578	-0.0296
COc1cccc(OCCCN)c1-c1cc(Nc2cnc(C#N)cn2)n[nH]1 [Prexasertib] + O=C(c1cc(Cc2n[nH]c(=O)c3ccccc23)ccc1F)N1CCN(C(=O)C2CC2)CC1 [Olaparib] (first compound max 1 µM, 7x7, partner max 10 µM)	-0.129	-0.0162	-0.0667	-0.0401	-0.0616	0.101	-0.0336	-0.0165	0.015	-0.099	-0.0463	0.0024	-0.074	-0.0553	-0.125	-0.0613	-0.0602	0.0014	-0.024	0.0101
C[C@@H]1COCCN1c1cc(C2([S@](C)(=N)=O)CC2)nc(-c2ccnc3[nH]ccc23)n1 [AZD6738] + O=C(c1cc(Cc2n[nH]c(=O)c3ccccc23)ccc1F)N1CCN(C(=O)C2CC2)CC1 [Olaparib] (first compound max 10 µM, 7x7, partner max 10 µM)	-0.0084	0.0337	-0.0454	0.0115	0.0247	0.0684	-0.0479	0.0101	0.0082	0.0189	-0.0219	0.0096	-0.0022	-0.0072	-0.0405	0.011	-0.016	0.0266	0.053	0.0025
CN(CCO)CC[C@H](CSc1ccccc1)Nc1ccc(S(=O)(=O)NC(=O)c2ccc(N3CCC([C@@H](O)c4ccccc4-c4ccc(Cl)cc4)CC3)cc2)cc1S(=O)(=O)C(F)(F)F [AZD4320] + Cn1cnc2c(F)c(Nc3ccc(Br)cc3Cl)c(C(=O)NOCCO)cc21 [Selumetinib] (first compound max 1 µM, 7x7, partner max 3 µM)	0.0195	0.0178	-0.0849	-0.006	0.0048	0.22	-0.0088	0.0229	0.0025	0.107	0.0417	-0.0306	0.0271	0.0033	0.0272	0.0103	0.0306	-0.0068	-0.02	0.0827
COc1cccc(OCCCN)c1-c1cc(Nc2cnc(C#N)cn2)n[nH]1 [Prexasertib] + CCc1c2c(nc3ccc(O)cc13)-c1cc3c(c(=O)n1C2)COC(=O)[C@]3(O)CC [SN-38] (first compound max 1 µM, 7x7, partner max 0.3 µM)	-0.0727	0	-0.0622	-0.0118	0.0061	-0.0477	0.0282	-0.0686	0.107	-0.0831	-0.0192	0.0283	-0.0156	0.0073	0.0153	-0.074	-0.088	0.0774	-0.106	0.0659
Cc1cc2ncnn2cc1Nc1ncc2c(n1)n(C1CCOCC1)c(=O)n2C [AZD7648] + O=C(c1cc(Cc2n[nH]c(=O)c3ccccc23)ccc1F)N1CCN(C(=O)C2CC2)CC1 [Olaparib] (first compound max 10 µM, 7x7, partner max 10 µM)	-0.0382	-0.0542	-0.0489	-0.0492	-0.0164	-0.0184	-0.0423	-0.0152	0.0061	-0.0401	-0.0466	-0.0465	-0.0584	-0.0534	-0.026	-0.0378	-0.0461	0.0471	-0.0183	-0.0059
COc1cccc(OCCCN)c1-c1cc(Nc2cnc(C#N)cn2)n[nH]1 [Prexasertib] + CN(C)CCCOc1ccc(-c2ccc3ncc4c(c3c2)n(C2CCOCC2)c(=O)n4C)cn1 [AZD0156] (first compound max 1 µM, 7x7, partner max 1 µM)	0.0116	0.0582	0.0109	-0.0244	0.009	0.0592	-0.0459	-0.014	-0.0049	0.0424	-0.03	-0.0095	-0.0035	-0.033	-0.0167	-0.0307	-0.0183	-0.0236	0.05	-0.0156
C=CCn1c(=O)c2cnc(Nc3ccc(N4CCN(C)CC4)cc3)nc2n1-c1cccc(C(C)(C)O)n1 [AZD1775] + C[C@@H]1COCCN1C2=NC(=NC(=C2)C3(CC3)[S@](=N)(=O)C)C4=C5C=CNC5=NC=C4 [AZD6738] (first compound max 1 µM, partner max 10 µM)	-0.0212	-0.0057	-0.0464	-0.0149	0.0937	0.0455	–	0.0529	0.0485	-0.0746	-0.0061	-0.0002	0.0354	0.0462	0.0075	0.0066	-0.0474	-0.0454	-0.0134	0.0035
